Measurements from patent US20030022821A1, “Bioactive peptides” (priority 1998, published 2003).
In brackets after ≈: the same amount, converted by molar mass. Like-named read-outs stand apart in the source and are kept apart here. Ends that are not written are not given here. Peptide text beside a SMILES is read from it. * marks the point of attachment. Acm = CC(=O)NC*

How the values were obtained:
Assay type in all cases: cell-based
[1] = tested on: Escherichia coli ATCC 25922
How it was run: (§1)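 Inoculum of 2×10^6 CFU/ml, mid-logarithmic growth phase, in 1% Bacto Peptone water; standard microdilution, performed in triplicate.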

[2] = tested on: Staphylococcus aureus ATCC 25923
How it was run: as §1

human red blood cells = assay: Hemolytic assay; details: for % Hemolysis 10 μg/ml / % Hemolysis 100 μg/ml: red cells of human
Description: The hemolytic activities of the peptides were determined using fresh human red blood cells. 8 ml blood was taken from a healthy person. 4 ml blood was transferred to a polycarbonate tube containing heparin to a final concentration of 10 U/ml, and the remaining 4 ml blood was transferred to a glass tube containing EDTA with final concentration of 15% EDTA. The erythrocytes were isolated from heparin-treated blood by centrifugation in 1500 rpm for 10 min and washed three times with phosphate-buffered saline (PBS) to remove plasma and buffy coat. The cell pellet was resuspended in PBS to make the final volume of 4 ml. The peptide was diluted to a concentration of 2 mg/ml and 0.1 mg/ml. The peptide was further diluted to the concentrations as stated in Table 15. For each tube PBS was added first, then RBCs and peptide solutions. The hematocrit in the blood treated with EDTA was determined after 30 min with Sysmex K-1000, and the resuspended RBCs were diluted into 10% hematocrit. RBCs in PBS (1%) with and without peptides (Table 15) were incubated in a shaker at […] for 1 hour and then centrifuged at 4000 rpm for 5 min. The supernatant were carefully transferred to new polycarbonate tubes and the absorbance of the supernatant was measured at 540 nm. Baseline hemolysis was hemoglobin released in the presence of PBS, and 100% hemolysis was hemoglobin released in the presence of 0.1% Triton X-100.

Compound | % Hemolysis 10 μg/ml (human red blood cells) [%] | % Hemolysis 100 μg/ml (human red blood cells) [%] | MIC E. coli ([1]; ATCC 25922) [µg/mL] | MIC S. aureus ([2]; ATCC 25923) [µg/mL] | further results
CSCC[C@H](NC(=O)[C@H](CCCNC(=N)N)NC(=O)[C@H](Cc1c[nH]c2ccccc12)NC(=O)[C@H](CCC(N)=O)NC(=O)[C@H](Cc1c[nH]c2ccccc12)NC(=O)[C@H](CCCNC(=N)N)NC(=O)[C@H](Cc1ccccc1)NC(=O)[C@H](CSCNC(C)=O)NC(=O)[C@H](CCCCN)NC(=O)[C@@H](N)Cc1ccccc1)C(=O)N[C@@H](CCCCN)C(=O)N[C@@H](CCCCN)C(=O)N[C@@H](CC(C)C)C(=O)NCC(=O)N[C@@H](C)C(=O)O [LFB F4] (H-FKC(Acm)FRWQWRMKKLGA-OH; N-terminus and C-terminus assumed) | 2.4 | 3.2 | – | – | MIC E. coli ATCC 25922 ([1]; ATCC 25922): 20 µg/mL; MIC E. coli ATCC 25922 ([1]; Table 1, value in brackets): 10 µM; MIC E. coli ([1]; Table 12): 20 µg/mL (≈ 9.73 µM); MIC S. aureus ATCC 25923 ([2]; ATCC 25923): 200 µg/mL; MIC S. aureus ATCC 25923 ([2]; Table 1, value in brackets): 100 µM; MIC S. aureus ([2]; Table 12): 200 µg/mL (≈ 97.3 µM)
CSCC[C@H](NC(=O)[C@H](CCCNC(=N)N)NC(=O)[C@H](Cc1c[nH]c2ccccc12)NC(=O)[C@H](CCC(N)=O)NC(=O)[C@H](Cc1c[nH]c2ccccc12)NC(=O)[C@H](CCCNC(=N)N)NC(=O)[C@H](CC(C)C)NC(=O)[C@H](CSCNC(C)=O)NC(=O)[C@H](CCCCN)NC(=O)[C@@H](N)CCCNC(=N)N)C(=O)N[C@@H](CCCNC(=N)N)C(=O)N[C@@H](CCCCN)C(=O)N[C@H](C(=O)NCC(=O)NCC(=O)O)C(C)C [LFM R1, 9 W8] (H-RKC(Acm)LRWQWRMRKVGG-OH; N-terminus assumed) | 3.69 | – | 25 (≈ 12.3 µM) | 75 (≈ 36.9 µM) | –
CSCC[C@H](NC(=O)[C@H](CCC(=O)O)NC(=O)[C@H](CC(N)=O)NC(=O)[C@H](CCC(N)=O)NC(=O)[C@H](Cc1c[nH]c2ccccc12)NC(=O)[C@H](CCCNC(=N)N)NC(=O)[C@H](CC(C)C)NC(=O)[C@H](CSCNC(C)=O)NC(=O)[C@H](CCCCN)NC(=O)[C@@H](N)CCC(=O)O)C(=O)N[C@@H](CCCNC(=N)N)C(=O)N[C@@H](CCCCN)C(=O)N[C@H](C(=O)NCC(=O)NCC(=O)O)C(C)C [LFM, EKCLRWQNEMRKVGG] (H-EKC(Acm)LRWQNEMRKVGG-OH; N-terminus assumed) | 2.3 | 3.1 | >1000 | >1000 | –
CSCC[C@H](NC(=O)[C@H](C)NC(=O)[C@H](Cc1c[nH]c2ccccc12)NC(=O)[C@H](CCC(N)=O)NC(=O)[C@H](Cc1c[nH]c2ccccc12)NC(=O)[C@H](CCCNC(=N)N)NC(=O)[C@H](CC(C)C)NC(=O)[C@H](CSCNC(C)=O)NC(=O)[C@H](CCCCN)NC(=O)[C@H](C)N)C(=O)N[C@@H](CCCNC(=N)N)C(=O)N[C@@H](CCCCN)C(=O)N[C@H](C(=O)NCC(=O)NCC(=O)O)C(C)C [LFM A1, 9 W8] (H-AKC(Acm)LRWQWAMRKVGG-OH; N-terminus assumed) | 2.8 | 3.7 | 200 (≈ 107 µM) | >1000 | –
CSCC[C@H](NC(=O)[C@H](CCC(=O)O)NC(=O)[C@H](Cc1c[nH]c2ccccc12)NC(=O)[C@H](CCC(N)=O)NC(=O)[C@H](Cc1c[nH]c2ccccc12)NC(=O)[C@H](CCCNC(=N)N)NC(=O)[C@H](CC(C)C)NC(=O)[C@H](CSCNC(C)=O)NC(=O)[C@H](CCCCN)NC(=O)[C@@H](N)CCC(=O)O)C(=O)N[C@@H](CCCNC(=N)N)C(=O)N[C@@H](CCCCN)C(=O)N[C@H](C(=O)NCC(=O)NCC(=O)O)C(C)C [LFM W8, H2N-Glu-Lys-Cys-Leu-Arg-Trp-Gln-Trp-Glu-Met-Arg-Lys-Val-Gly-Gly-COOH] (H-EKC(Acm)LRWQWEMRKVGG-OH) | 2.6 | 4.8 | >1000 | 1000 (≈ 506 µM) | –
YRAWRWAWRWR-NH2 [LFB 17-27 A3, 7 R2, 11 W4, 10 Y1 NH2, TYR-ARG-ALA-TRP-ARG-TRP-ALA-TRP-ARG-TRP-ARG-CONH2] | – | – | – | – | MIC E. coli ([1]; Table 14, peptides with a proportion of D amino acids): 10 µg/mL; MIC S. aureus ([2]; Table 14): 2.5 µg/mL; EC50 (human red blood cells): 400 ± 200 µM; EC 50 (human red blood cells; Table 13, toxicity (hemolysis)): 700 ± 300 µg/mL
RRWQWRMKKLG-OH [LFB 20-30] | 2.16 | 3.1 | 40 | >100 | –
CSCC[C@H](NC(=O)[C@H](CCCNC(=N)N)NC(=O)[C@H](Cc1c[nH]c2ccccc12)NC(=O)[C@H](CCC(N)=O)NC(=O)[C@H](Cc1c[nH]c2ccccc12)NC(=O)[C@H](CCCNC(=N)N)NC(=O)[C@H](CC(C)C)NC(=O)[C@H](CSCNC(C)=O)NC(=O)[C@H](CCCCN)NC(=O)[C@@H](N)CCC(=O)O)C(=O)N[C@@H](CCCNC(=N)N)C(=O)N[C@@H](CCCCN)C(=O)N[C@H](C(=O)NCC(=O)NCC(=O)O)C(C)C [LFM R9 W8] (H-EKC(Acm)LRWQWRMRKVGG-OH; N-terminus assumed) | 3.1 | 4.59 | 500 (≈ 249 µM) | >1000 | –
CSCC[C@H](NC(=O)[C@H](CCCNC(=N)N)NC(=O)[C@H](Cc1ccc2ccccc2c1)NC(=O)[C@H](CCC(N)=O)NC(=O)[C@H](Cc1c(S(=O)(=O)c2c(C)c(C)c3c(c2C)CCC(C)(C)O3)[nH]c2ccccc12)NC(=O)[C@H](CCCNC(=N)N)NC(=O)[C@H](CCCNC(=N)N)NC(=O)[C@H](CSCNC(C)=O)NC(=O)[C@H](CCCCN)NC(=O)[C@@H](N)Cc1ccccc1)C(=O)N[C@@H](CCCCN)C(=O)N[C@@H](CCCCN)C(=O)N[C@@H](CC(C)C)C(=O)NCC(=O)N[C@@H](C)C(=O)O [LFB Nal8 PMC] | 6.96 | 18.86 | 20 (≈ 8.54 µM) | 10 (≈ 4.27 µM) | –
CSCC[C@H](NC(=O)[C@H](CCC(=O)O)NC(=O)[C@H](Cc1c[nH]c2ccccc12)NC(=O)[C@H](CCC(N)=O)NC(=O)[C@H](Cc1c[nH]c2ccccc12)NC(=O)[C@H](CCCNC(=N)N)NC(=O)[C@H](CC(C)C)NC(=O)[C@H](CSCNC(C)=O)NC(=O)[C@H](CCCCN)NC(=O)[C@H](C)N)C(=O)N[C@@H](CCCNC(=N)N)C(=O)N[C@@H](CCCCN)C(=O)N[C@H](C(=O)NCC(=O)NCC(=O)O)C(C)C [LFM A1 W8] (H-AKC(Acm)LRWQWEMRKVGG-OH; N-terminus assumed) | 2.4 | 3 | 750 (≈ 391 µM) | >1000 | –
CSCC[C@H](NC(=O)[C@H](CCCNC(=N)N)NC(=O)[C@H](Cc1c[nH]c2ccccc12)NC(=O)[C@H](CCC(N)=O)NC(=O)[C@H](Cc1c[nH]c2ccccc12)NC(=O)[C@H](CCCNC(=N)N)NC(=O)[C@H](CCCNC(=N)N)NC(=O)[C@H](CSCNC(C)=O)NC(=O)[C@H](CCCCN)NC(=O)[C@@H](N)Cc1ccccc1)C(=O)N[C@@H](CCCCN)C(=O)N[C@@H](CCCCN)C(=O)N[C@@H](CC(C)C)C(=O)N[C@@H](Cc1c[nH]c2ccccc12)C(=O)N[C@@H](C)C(=O)O [LFB W14, H2N-Phe-Lys-Cys-Arg-Arg-Trp-Gln-Trp-Arg-Met-Lys-Lys-Leu-Trp-Ala-COOH] (H-FKC(Acm)RRWQWRMKKLWA-OH) | 3 | 4.1 | 20 (≈ 9.11 µM) | 25 (≈ 11.4 µM) | MIC E. coli ([1]; Table 6): 20 µg/mL (≈ 9.11 µM); MIC S. aureus ([2]; Table 6, unit assumed): 25 µg/mL (≈ 11.4 µM)
